pIC50: −log10 of the molar value.
The molecules below were run against T1, recombinant human Flag-tagged PARP7 (amino acids 456-657) (Homo sapiens, UniProt Q7Z3E1) (assay: PARP7 biochemical DELFIA assay (auto-MARylation)). Settings: DELFIA readout, IC50 class.
T1 construct: recombinant human Flag-tagged PARP7 (amino acids 456-657)
T1 sequence (Q7Z3E1 456-657): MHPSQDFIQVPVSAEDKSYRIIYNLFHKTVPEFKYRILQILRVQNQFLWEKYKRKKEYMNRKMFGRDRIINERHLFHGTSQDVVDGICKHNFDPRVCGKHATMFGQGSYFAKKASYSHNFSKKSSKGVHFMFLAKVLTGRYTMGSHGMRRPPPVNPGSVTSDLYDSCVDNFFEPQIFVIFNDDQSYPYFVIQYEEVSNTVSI
Procedure, shortened: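 Readout is DELFIA time-resolved Eu fluorescence (Ex337 nm, Em620 nm) of biotin-ADP-ribose on immobilised Flag-tagged PARP7 456-657. Enzyme (12.5-37.5 nM as added) sat 30 min with compound before biotin-NAD+ (15 μM solution, pH 7.5 HEPES buffer) started 2-3 h room-temperature self-modification, stopped with excess NAD+.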

pIC50 | Compound
6.00 to 7.00 | CNC(=O)c1ccc(N2CCN(C(=O)CCOCC(C)n3nc(C(F)(F)F)c4c(=O)[nH]ncc43)CC2)nc1 (stereo not drawn) [Compound 304]
≥ 7.00 | CC(CCOCC(=O)N1CCN(c2ccc(C#N)cn2)CC1)n1nc(C(F)(F)F)c2c(=O)[nH]ncc21 (single isomer, unassigned) [Compound 467]
≥ 7.00 | O=C(CCOCCN1C(=O)CCc2c1cn[nH]c2=O)N1CCN(c2ccc(Cl)cn2)CC1 [Compound 261]
5.00 to 6.00 | O=C(COCCNc1cccc2c(=O)[nH]cnc12)N1CCN(c2ncc(C(F)(F)F)cn2)CC1 [Compound 17]
≥ 7.00 | CC(COCCC(=O)N1CCN(c2ccc(C(F)(F)F)cn2)CC1)n1nc(C(F)(F)F)c2c(=O)[nH]ncc21 (stereo not drawn) [Compound 178]
≥ 7.00 | O=C1NCCn2c(CCOCCC(=O)N3CCN(c4ncc(C(F)(F)F)cn4)CC3)nc(C(F)(F)F)c21 [Compound 235, 3-(2-(3-oxo-3-(4-(5-(trifluoromethyl)pyrimidin-2-yl)piperazin-1-yl)propoxy)ethyl)-1-(trifluoromethyl)-6,7-dihydroimidazo[1,5-a]pyrazin-8(5H)-one]
≥ 7.00 | CC(COCC(=O)NC1CCN(c2ncc(C(F)(F)F)cn2)CC1)n1nc(C(F)(F)F)c2c(=O)[nH]ncc21 (single isomer, unassigned) [Compound 479, 2-(2-(4-oxo-3-(trifluoromethyl)-4,5-dihydro-1H-pyrazolo[3,4-d]pyridazin-1-yl)propoxy)-N-(1-(5-(trifluoromethyl)pyrimidin-2-yl)piperidin-4-yl) acetamide]
≥ 7.00 | O=C(CCOCCn1nc(C(F)(F)F)c2c(=O)[nH]ncc21)N1CCN(c2nc3cc(F)ccc3o2)CC1 [Compound 215, 1-(2-(3-(4-(5-fluorobenzo[d]oxazol-2-yl)piperazin-1-yl)-3-oxopropoxy)ethyl)-3-(trifluoromethyl)-1,5-dihydro-4H-pyrazolo[3,4-d]pyridazin-4-one]
5.00 to 6.00 | N#Cc1ccc(N2CCN(C(=O)c3ccc(COc4cccc5c(=O)[nH]ncc45)cc3)CC2)nc1 [Compound 41]
≥ 7.00 | O=C(CCOCCc1cccc2c(=O)[nH]ncc12)N1CCN(c2nc3ccc(F)cc3o2)CC1 [Compound 180]
≥ 7.00 | CC(COCCC(=O)N1CCN(c2ncccc2Cl)CC1)n1nc(C(F)(F)F)c2c(=O)[nH]ncc21 (stereo not drawn) [Compound 355]
6.00 to 7.00 | CC(COCCC(=O)N1CCN(c2cc(C(F)(F)F)on2)CC1)n1nc(C(F)(F)F)c2c(=O)[nH]ncc21 (single isomer, unassigned) [Compound 430]
≥ 7.00 | CC(COCCC(=O)N1CCN(c2ncc(F)cn2)CC1)n1nc(C(F)(F)F)c2c(=O)[nH]ncc21 (single isomer, unassigned) [Compound 249, 1-(1-(3-(4-(5-fluoropyrimidin-2-yl)piperazin-1-yl)-3-oxopropoxy)propan-2-yl)-3-(trifluoromethyl)-1,5-dihydro-4H-pyrazolo[3,4-d]pyridazin-4-one]
5.00 to 6.00 | O=C(CCOCCc1cccc2c(=O)[nH]ncc12)N1CCC(c2cc(C(F)(F)F)[nH]n2)CC1 [Compound 282]
6.00 to 7.00 | N#Cc1ccc(N2CCN(C(=O)CCOCCc3cc(C(F)(F)F)cc4c(=O)[nH]ncc34)CC2)nc1 [Compound 68]
≥ 7.00 | CC(COCCC(=O)N1CCN(c2ncc(Cl)cn2)CC1)n1cc(C(F)(F)F)c2c(=O)[nH]ncc21 (stereo not drawn) [Compound 273]
≥ 7.00 | CC(COCCC(=O)N1CCN(c2ccc(C#N)cn2)CC1)c1ccc(Cl)c2c(=O)[nH]ncc12 (stereo not drawn) [Compound 417]
≥ 7.00 | CC(COCCC(=O)N1CCN(c2ncccc2C(F)(F)F)CC1)n1nc(C(F)(F)F)c2c(=O)[nH]ncc21 (stereo not drawn) [Compound 353]
≥ 7.00 | O=C(CCOCCN1CCCc2c1cn[nH]c2=O)N1CCN(c2ncc(C(F)(F)F)cn2)CC1 [Compound 8]
≥ 7.00 | O=C(CCOCCc1cccc2c(=O)[nH]ncc12)N1CCN(c2ncc3c(n2)NCCC3)CC1 [Compound 220]
≥ 7.00 | CNC(=O)c1cnc(N2CCN(C(=O)CCOCC(C)n3nc(C(F)(F)F)c4c(=O)[nH]ncc43)CC2)nc1 (stereo not drawn) [Compound 325]

Source: US20240217968A1, “PHARMACEUTICAL COMPOUND” (DUKE STREET BIO LIMITED, priority 2021, published 2024)
